A short description of one data set: In vivo PK profiling. The note with it: male, C57BL/6, mouse, plasma, mice. Here is the method: PK profiling was outsourced and undertaken by Shanghai ChemPartner Co., Ltd. All animal experiments performed were conducted in compliance with the Institutional Animal Care and Use Committee (IACUC) and the Office of Laboratory Animal Welfare (OLAW) guidelines. Six- to eight-week-old C57BL/6 male mice purchased from Jihui Laboratory Animal Co. LTD were used in the study. […] The animals were restrained manually at the designated time points (0.083, 0.25, 0.5, 1, 2, 4, and 8 h); approximately, 110 μL of blood sample was collected via facial vein into K2EDTA tubes. Three mice per time point were used, resulting in a […]. The blood sample was put on ice and centrifuged at 2000g for 5 min to obtain the plasma sample within 15 min. The plasma samples were stored at approximately −70 °C until analysis. A 30 μL aliquot of plasma was added with 200 μL of internal standard (diclofenac, 40 ng/mL) in 1% formic acid in MeCN. The mixture was then vortexed for 1 min and then centrifuged for 10 min at 5800 rpm. The supernatant (100 μL) was transferred to a new plate. The solvent (0.5 μL) was injected to LC–MS/MS. LC–MS/MS instrument used: SCIEX LC–MS/MS-45 (Triple Quad 6500+). Data was analyzed by WinNonLin and Microsoft Excel.

The next data set has as its system MV-4-11 cells. The data set can be described thus: CellTiter-Glo 2.0 cell viability assay, MV-4-11. The following applies: MV-4-11, up to 1–10 μM. It is filed as cell-based, human.

Read-outs that look alike come from different tables or passages of the source.

Method for MV-4-11 cells: All cell lines were treated with compounds in duplicate (triplicate for DMSO controls) at a 1× concentration in 0.1% DMSO. The compounds were serially diluted to produce a 7-point, 10-fold titration. The cells were treated with 50:100 μL of compound for a final concentration of 10 μM:10 pM in 0.1% DMSO. At the point of spectrometric analysis, cells were treated with 100 μL of Promega CellTiter-Glo 2.0 Cell Viability Assay reagent. The plates were subjected to an orbital shaker for 2 min to encourage lysis and left for a further 5 min to reach peak luminescence. Luminescence was then recorded on a BMG Labtech PHERAstar luminescence plate reader with recommended settings. Data extracted from this analysis was analyzed with GraphPad Prism (v. 8.2.0, GraphPad) and normalized to the DMSO vehicle control. The EC50 values were derived from these plots.

In the data set “In vivo PK profiling” (IV (5 mg/kg)), `CC[C@@H](C(=O)OCCOCCOCCOCC(=O)N[C@H](C(=O)N1C[C@H](O)C[C@H]1C(=O)NCc1ccc(-c2scnc2C)cc1)C(C)(C)C)[C@@H]1N=C(c2ccc(Cl)cc2)c2c(sc(C)c2C)-n2c(C)nnc21` [AGB1 (46), (S)-13-((2S,4R)-4-Hydroxy-2-((4-(4-methylthiazol-5-yl)benzyl)carbamoyl)pyrrolidine-1-carbonyl)-14,14-dimethyl-11-oxo-3,6,9-trioxa-12-azapentadecyl (R)-2-((S)-4-(4-chlorophenyl)-2,3,9-trimethyl-6H-thieno[3,2-f][1,2,4]triazolo[4,3-a][1,4]diazepin-6-yl)butanoate] gave an AUC(0-t) at 8 h of 1.71 µM·h, an MRT inf of 23.4 min, a clearance at 8 h of 47.2 mL/min/kg and a half-life at 8 h of 89.4 min. Besides, the AUC(0-inf) at 8 h in “In vivo PK profiling” (IV (5 mg/kg), read-out: AUCinf) worked out at 1.72 µM·h. Moreover, in “In vivo PK profiling” (IV (5 mg/kg), read-out: Vss), the Vd at 8 h was determined as 1.1 L/kg. In the data set “In vivo PK profiling” (SC (5 mg/kg)), the AUC(0-t) at 8 h was found to be 2.33 µM·h, the peak level (Cmax at 8 h) was 700 nM, the Tmax at 8 h was found to be 30 min and the half-life at 8 h was 99 min. For the same molecule, in “In vivo PK profiling” (SC (5 mg/kg), read-out: AUCinf (μ; M·h)), the AUC(0-inf) at 8 h came to 2.4 µM·h. In addition, in the data set on MV-4-11 cells, the cytotoxicity result is “lack of cytotoxicity”.

The record behind these values is article PMC8558867, “Development of BromoTag: A “Bump-and-Hole”–PROTAC System to Induce Potent, Rapid, and Selective Degradation of Tagged Target Proteins” (Journal of Medicinal Chemistry, 2021).
